According to article PMC7659345, “Viral rhodopsins 1 are an unique family of light-gated cation channels” (Nature Communications, 2020):

Legend:
VirChR1 = target: T1, VirChR1 (marine metagenome, UniProt Z9TV22U1G0); test: UV-visible absorption of purified holoprotein; format: binding; conditions: covalent Schiff base (by homology); pH 7.5; all-trans-retinal added to E. coli culture
T1 sequence (Z9TV22U1G0 1-242): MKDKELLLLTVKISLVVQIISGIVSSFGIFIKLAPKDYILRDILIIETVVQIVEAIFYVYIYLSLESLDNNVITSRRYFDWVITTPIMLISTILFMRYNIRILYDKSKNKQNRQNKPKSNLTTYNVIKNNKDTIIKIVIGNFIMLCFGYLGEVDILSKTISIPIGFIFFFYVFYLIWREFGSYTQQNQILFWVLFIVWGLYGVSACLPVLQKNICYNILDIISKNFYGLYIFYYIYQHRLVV

OLPVR1 = target: T2, OLPVR1 (Organic Lake phycodnavirus 1, UniProt Z9N4O7KYY5); test: X-ray crystal structure, […] A (type A, P21212) and […] A (type B, P1); format: binding; conditions: covalent Schiff base to K204; all-trans 15-anti; crystals grown in meso with monopalmitolein, pH 8.0 (7AKY); also 7AKX (monoolein, pH 7.0)
T2 construct: residues 2-223 resolved; one (P21212) or two (P1) molecules per asymmetric unit
T2 sequence (Z9N4O7KYY5 1-223): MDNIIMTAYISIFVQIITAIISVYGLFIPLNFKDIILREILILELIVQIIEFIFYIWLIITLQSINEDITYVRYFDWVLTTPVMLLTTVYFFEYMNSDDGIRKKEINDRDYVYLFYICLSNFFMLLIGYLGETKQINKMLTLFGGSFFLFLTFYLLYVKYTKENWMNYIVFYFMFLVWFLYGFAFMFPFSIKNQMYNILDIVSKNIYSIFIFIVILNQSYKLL

Structure (SMILES): CC1=C(/C=C/C(C)=C/C=C/C(C)=C/C=O)C(C)(C)CCC1 [all-trans retinal]
- UV-visible absorption of purified holoprotein (VirChR1): Both OLPVR1 and VirChR1 show absorption spectra sensitive to blue light
- X-ray crystal structure, 1.4 A (type A, P21212) and 1.6 A (type B, P1) (OLPVR1): all-trans retinal (ATR) covalently bound to K204 (K257 in CrChR2
